# Source: patent publication US20040029927A1, “Use of a compound in providing refreshedness on waking and a method for the treatment of grogginess therewith” (The Boots Company PLC, priority 2001, published 2004)
# Where a name gives a salt, the structure may show the parent alone.
# Experiments:
# [1] = test system: patients with temporary sleep disturbance; assay: Clinical trial, Loughborough sleep log: last night I slept (quality of sleep, 5-point scale); assay type: in vivo, human
# Method: (§1) The efficacy of triprolidine in enabling a patient to feel refreshed or alert upon waking after taking triprolidine prior to sleeptime was investigated using patients with a history of sleep disorders and utilising triprolidine prepared in accordance with example 3.
# (§2) A multiple-dose, placebo-controlled, parallel-group, double-blind, randomised study investigating the effects of 2.5 mg and 5 mg triprolidine in patients with temporary sleep disturbance.
# (§3) Male and Female candidates aged 18 years and above were recruited to one of five research centres by means of local advertising. Candidates were screened by means of a telephone questionnaire and selected candidates invited for interview at the research centre. Key inclusion criteria used to select candidates for the study were:
# (§4) The candidates came to the research centre on Thursday or Friday and were fitted with a wrist actimeter (AW4 from Cambridge Technology) to establish a baseline measure for SDI and were provided with diary cards to record subjective assessments for the Loughborough Sleep Log and the Karolinska Sleepiness Scale. They returned to the investigational site on the Monday and were issued with the study compositions (2.5 mg triprolidine, 5 mg triprolidine or placebo). The investigator telephoned a central randomisation centre where the subject was randomised to a particular treatment group using a dynamic balanced randomisation algorithm. The subject was given three doses of their allocated study medication and instructed to take a single dose of two tablets 20 minutes before they intended to go to sleep on three consecutive evenings, commencing that evening. The diary cards for the Loughborough Sleep Log and Karolinska Sleepiness Scale were asked to be completed on waking.
# (§5) In the trial, patients were tested during a seven day period and the results have been analysed for a mean of three days in the middle of this period. The effects of triprolidine at dose level 2.5 mg and 5.0 mg are compared with placebo in table 1.
# (§6) The following is a copy of the “Loughborough sleep log questionnaire” which was used by patients in the study and provided the data for datasets a and b in table 1
# [2] = test system: volunteers; conditions: single doses 10 mg or 20 mg sustained release at bedtime; cited from earlier work
# [3] = test system: patients with temporary sleep disturbance; assay: Clinical trial, Loughborough sleep log: feeling of refreshedness 15 minutes after waking (5-point scale); assay type: in vivo, human
# Method: as §1, §2, §3, §4
# Candidates were required to complete a questionnaire 15 minutes after awaking on the feeling of refreshedness assessed on a 5-point scale, the Loughborough sleep log.
# as §5
# Generally the treatment groups were well balanced in terms of the demographic data. Unless otherwise mentioned all group data was analysed using ANOVA. In two cases, namely, how the patient felt 15 minutes after awakening in the Loughborough Sleep Log and the Karolinska Sleepiness Scale at 20 minutes, the two variables were analysed using ANCOVA by including the weekend and the mean of Friday/Saturday/Sunday night as a covariate. The method was a closed test procedure (Williams' test). Each of the tests were to be conducted at the 5% level. The analysis of the secondary endpoints was similarly conducted using the Student's t-tests on parameter estimates taken from the analysis of variance model presented above.
# as §6
# [4] = test system: patients with temporary sleep disturbance; assay: Clinical trial, Karolinska 9-point sleepiness scale; assay type: in vivo, human
# Method: as §1
# (a) Karolinska scale as defined in: Int. J. Neuroscience 52 29-37 (1990); and
# as §2, §3, §4
# A daytime sleepiness assessment was also made 20 minutes, 2 hours and 4 hours after awaking on the Karolinska 9-point scale, i.e. the sleepiness scale.
# Karolinska's sleepiness scale is set out below and the results for placebo, 2.5 and 5.0 mg doses of triprolidine are shown in tables 4 and 5. Table 4 relates to the number of individuals experiencing scales 1, 2 or 3 on the Karolinska scale and table 5 relates to the number of individuals experiencing scales 8 and 9.
# Karolinska Sleepiness Scale
# This will be completed 20 minutes after awakening and then at 2 hours and 4 hours following the first assessment on days 5, 6, 7 and 8.
structure (smiles),measurement,setting,value
Cc1ccc(/C(=C\CN2CCCC2)c2ccccn2)cc1 [TRP.HCl.H2O],"last night I slept (1- extremely well, 5- extremely badly), Mean","[1]; 2.5 mg, Mean of 3",2.73
same,"last night I slept (1- extremely well, 5- extremely badly), Mean","[1]; 2.5 mg, Mon",2.67
same,Last Night I Slept Extremely Well or Very Well Responses,"[1]; 2.5 mg, Monday",41.4%
same,"last night I slept (1- extremely well, 5- extremely badly), Mean","[1]; 2.5 mg, Tues",2.71
same,Last Night I Slept Extremely Well or Very Well Responses,"[1]; 2.5 mg, Tuesday",41.8%
same,"last night I slept (1- extremely well, 5- extremely badly), Mean","[1]; 2.5 mg, Wed",2.81
same,Last Night I Slept Extremely Well or Very Well Responses,"[1]; 2.5 mg, Wednesday",37.9%
same,"last night I slept (1- extremely well, 5- extremely badly), Mean","[1]; 5 mg, Mean of 3",2.69
same,"last night I slept (1- extremely well, 5- extremely badly), Mean","[1]; 5 mg, Mon",2.49
same,Last Night I Slept Extremely Well or Very Well Responses,"[1]; 5 mg, Monday",50.9%
same,"last night I slept (1- extremely well, 5- extremely badly), Mean","[1]; 5 mg, Tues",2.93
same,Last Night I Slept Extremely Well or Very Well Responses,"[1]; 5 mg, Tuesday",28.8%
same,"last night I slept (1- extremely well, 5- extremely badly), Mean","[1]; 5 mg, Wed",2.64
same,Last Night I Slept Extremely Well or Very Well Responses,"[1]; 5 mg, Wednesday",39.3%
same,sleep onset latency (time required to fall asleep) compared with placebo,[2],did not significantly alter
same,total sleep time compared with placebo,[2],no effect
same,wakefulness during sleep compared with placebo,[2],no effect
same,"15 mins after awaking (1- very refreshed 5- very tired), Mean","[3]; 2.5 mg, Mean of 3",3.24
same,"15 mins after awaking (1- very refreshed 5- very tired), Mean","[3]; 2.5 mg, Mon",3.33
same,Awoke Very Refreshed or Refreshed Responses,"[3]; 2.5 mg, Monday",23%
same,"15 mins after awaking (1- very refreshed 5- very tired), Mean","[3]; 2.5 mg, Tues",3.23
same,Awoke Very Refreshed or Refreshed Responses,"[3]; 2.5 mg, Tuesday",23%
same,"15 mins after awaking (1- very refreshed 5- very tired), Mean","[3]; 2.5 mg, Wed",3.18
same,Awoke Very Refreshed or Refreshed Responses,"[3]; 2.5 mg, Wednesday",25.8%
same,feeling of refreshedness 15 minutes after waking versus placebo,"[3]; 2.5 mg, p<0.05",more refreshed than those on placebo
same,"15 mins after awaking (1- very refreshed 5- very tired), Mean","[3]; 5 mg, Mean of 3",3.59
same,"15 mins after awaking (1- very refreshed 5- very tired), Mean","[3]; 5 mg, Mon",3.72
same,Awoke Very Refreshed or Refreshed Responses,"[3]; 5 mg, Monday",11.5%
same,"15 mins after awaking (1- very refreshed 5- very tired), Mean","[3]; 5 mg, Tues",3.56
same,Awoke Very Refreshed or Refreshed Responses,"[3]; 5 mg, Tuesday",8.2%
same,"15 mins after awaking (1- very refreshed 5- very tired), Mean","[3]; 5 mg, Wed",3.54
same,Awoke Very Refreshed or Refreshed Responses,"[3]; 5 mg, Wednesday",14.8%
same,"percentage of people feeling alert, very alert or extremely alert on waking versus placebo",[4]; 2.5 mg,greater percentage
same,"percentage of people feeling sleepy, some effort, or very sleepy, great effort to keep awake, on waking versus placebo",[4]; 2.5 mg,lower percentage
same,residual hangover effects/morning grogginess,[4]; 2.5 mg,no evidence of residual hangover effects/morning grogginess
same,"I feel (i) sleepy, some effort or (ii) very sleepy, a great effort to keep awake (Karolinska scales 8 and 9)","[4]; 2.5 mg, Monday",11.5%
same,"I feel extremely alert, very alert or alert (Karolinska scales 1, 2 or 3)","[4]; 2.5 mg, Monday",21.3%
same,"I feel (i) sleepy, some effort or (ii) very sleepy, a great effort to keep awake (Karolinska scales 8 and 9)","[4]; 2.5 mg, Tuesday",13.1%
same,"I feel extremely alert, very alert or alert (Karolinska scales 1, 2 or 3)","[4]; 2.5 mg, Tuesday",21.3%
same,"I feel (i) sleepy, some effort or (ii) very sleepy, a great effort to keep awake (Karolinska scales 8 and 9)","[4]; 2.5 mg, Wednesday",6.5%
same,"I feel extremely alert, very alert or alert (Karolinska scales 1, 2 or 3)","[4]; 2.5 mg, Wednesday",21.0%
same,"I feel (i) sleepy, some effort or (ii) very sleepy, a great effort to keep awake (Karolinska scales 8 and 9)","[4]; 5 mg, Monday",12.5%
same,"I feel extremely alert, very alert or alert (Karolinska scales 1, 2 or 3)","[4]; 5 mg, Monday",6.3%
same,"I feel (i) sleepy, some effort or (ii) very sleepy, a great effort to keep awake (Karolinska scales 8 and 9)","[4]; 5 mg, Tuesday",17.5%
same,"I feel extremely alert, very alert or alert (Karolinska scales 1, 2 or 3)","[4]; 5 mg, Tuesday",9.5%
same,"I feel (i) sleepy, some effort or (ii) very sleepy, a great effort to keep awake (Karolinska scales 8 and 9)","[4]; 5 mg, Wednesday",12.7%
same,"I feel extremely alert, very alert or alert (Karolinska scales 1, 2 or 3)","[4]; 5 mg, Wednesday",17.5%
same,daytime sleepiness,[4]; either dose (2.5 mg or 5 mg),lack of daytime sleepiness
